For three molecules, IC50 results are on record in patent US5834454A, “Substituted guanidine derivatives, process for production thereof, and pharmaceutical uses thereof” (Sumitomo Pharmaceuticals Company, Limited, priority 1996, dated 1998).

T1 sequence (P26431 whole entry): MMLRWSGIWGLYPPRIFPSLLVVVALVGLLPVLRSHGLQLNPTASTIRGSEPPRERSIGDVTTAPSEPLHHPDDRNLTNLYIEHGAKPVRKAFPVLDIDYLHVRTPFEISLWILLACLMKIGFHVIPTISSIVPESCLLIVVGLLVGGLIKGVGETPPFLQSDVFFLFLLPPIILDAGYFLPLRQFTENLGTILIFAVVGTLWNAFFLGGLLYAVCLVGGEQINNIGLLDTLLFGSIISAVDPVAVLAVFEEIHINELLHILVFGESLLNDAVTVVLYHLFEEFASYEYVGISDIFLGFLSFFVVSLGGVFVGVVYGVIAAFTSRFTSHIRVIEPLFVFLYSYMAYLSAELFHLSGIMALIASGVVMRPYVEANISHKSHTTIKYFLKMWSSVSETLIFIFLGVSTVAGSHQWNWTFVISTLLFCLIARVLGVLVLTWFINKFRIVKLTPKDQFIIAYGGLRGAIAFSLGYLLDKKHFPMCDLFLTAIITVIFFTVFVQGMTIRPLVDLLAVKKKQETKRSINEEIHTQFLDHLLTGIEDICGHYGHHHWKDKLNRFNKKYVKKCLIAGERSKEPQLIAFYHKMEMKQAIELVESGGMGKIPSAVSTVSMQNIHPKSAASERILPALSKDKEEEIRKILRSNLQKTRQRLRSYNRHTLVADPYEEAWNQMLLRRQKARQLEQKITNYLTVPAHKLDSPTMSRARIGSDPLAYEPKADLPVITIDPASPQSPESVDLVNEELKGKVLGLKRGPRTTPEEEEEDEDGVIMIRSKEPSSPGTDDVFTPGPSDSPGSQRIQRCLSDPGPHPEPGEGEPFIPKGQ

The test addresses T1, Na^+ /H^+ exchange transport system (Rattus norvegicus, UniProt P26431).
T1 construct: isolated ventricular myocytes (rat); endogenous in cells; host or cells: isolated rat ventricular myocytes (primary cells)
Put plainly: Inhibitory effect on the Na^+ /H^+ exchange transport system (in vitro), pH change in isolated ventricular myocytes under an acid load. The class given is cell-based. The protocol:
Inhibitry effect on the Na^+ /H^+ exchange transport system (in vitro)
A test was carried out according to the method of Iemori et al. (J. Hypertension, 8, 153 (1990)). In detail, inhibitory effect on the Na^+ /H^+ exchange transport system was evaluated by using as an indication a pH change in isolated ventricular myocytes (rat) under an acid load.
Take `Cc1ccc2c3c1cc(C(=O)N=C(N)N)n3CCC2=O` [Example 1, N-(aminoiminomethyl)-5,6-dihydro-9-methyl-6-oxo-4H-pyrrolo [3,2,1-ij]quinoline-2-carboxamide methanesulfonate]: the IC50 turned out to be 300 nM.

The molecule `Cc1ccc2c3c1cc(C(=O)N=C(N)N)n3CCO2` [Example 2, N-(aminoiminomethyl)-2,3-dihydro-7-methyl-pyrrolo [1,2,3-de]-1,4-benzoxazine-5-carboxamide methanesulfonate] gave an IC50 of 200 nM. Compared with the last molecule, the IC50 is about 1.5-fold lower.

In the case of `NC(N)=NC(=O)c1cc2cccc3c2n1CCC3` [Example 3, N-(aminoiminomethyl)-5,6-dihydro-4H-pyrrolo [3,2,1-ij]quinoline-2-carboxamide methanesulfonate], the IC50 was 300 nM.

As usually defined, the IC50 is the concentration that inhibits the measured activity by half. Read a high IC50 as lower potency.
